# Molecular target: T1, M3 muscarinic receptor (Homo sapiens, UniProt P20309)
# T1 construct: gene CHRM3; recombinant M3 receptor expressed in HEK-293 cells (HEK-293/M3)
# Test: leftward shift of carbachol Ca2+ response in HEK-293/M3 cells (fluo-4); [3H]-4-DAMP not displaced
# Format: cell-based
# T1 sequence (P20309 whole entry): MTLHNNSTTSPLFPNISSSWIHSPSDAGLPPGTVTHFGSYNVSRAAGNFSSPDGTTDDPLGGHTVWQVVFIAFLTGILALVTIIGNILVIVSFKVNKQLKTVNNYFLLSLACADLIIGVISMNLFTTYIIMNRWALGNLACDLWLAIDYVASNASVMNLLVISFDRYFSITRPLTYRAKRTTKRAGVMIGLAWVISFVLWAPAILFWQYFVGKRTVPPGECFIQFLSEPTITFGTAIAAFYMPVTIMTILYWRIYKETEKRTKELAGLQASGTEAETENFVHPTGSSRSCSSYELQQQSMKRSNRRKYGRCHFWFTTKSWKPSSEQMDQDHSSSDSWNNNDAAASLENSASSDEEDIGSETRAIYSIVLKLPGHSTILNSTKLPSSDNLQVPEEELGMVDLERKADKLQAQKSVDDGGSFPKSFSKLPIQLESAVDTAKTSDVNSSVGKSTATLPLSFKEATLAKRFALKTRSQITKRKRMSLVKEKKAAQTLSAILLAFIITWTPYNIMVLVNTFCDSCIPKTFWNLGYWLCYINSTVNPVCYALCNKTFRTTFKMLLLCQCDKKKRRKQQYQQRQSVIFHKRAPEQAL
smiles,measurement,value
"CCN(CC)C(=O)c1cccc(C)c1 [DEET, N,N-diethyl-meta-toluamide]",leftward shift of carbachol Ca2+ response in HEK-293/M3 cells (fluo-4); [3H]-4-D,"Whatever the concentration of DEET used, it was able to induce a leftward shift of the calcium response induced by carbachol"

# — publication PMC4921870, “The insect repellent N,N-diethyl-m-toluamide (DEET) induces angiogenesis via allosteric modulation of the M3 muscarinic receptor in endothelial cells” (Scientific Reports, 2016)
